Measurements published in patent publication US20230141777A1, “COMPOSITION WHICH IS FOR TREATING OR PREVENTING RENAL CELL CANCER AND CONTAINS D-ALLOSE AS ACTIVE INGREDIENT, AND METHOD FOR TREATING OR PREVENTING CANCER USING SAME” (NATIONAL UNIVERSITY CORPORATION KAGAWA UNIVERSITY, priority 2020, published 2023).
Entries after “also recorded” stand apart in the source; their conditions may differ.

Assays:
[1] = system: human renal cell carcinoma cell line Caki-1 xenotransplantation mouse model; assay: Change in tumor volume and tumor histology in renal cell carcinoma xenotransplantation mouse model by oral administration of D-allose; format: in vivo; settings: Caki-1 xenograft
Method: (§1) The experiment was conducted using two different human renal cell carcinoma cell lines (Caki-1, ACHN). Each of the cells was cultured in a moist environment at 37° C., 5% CO2 using 10% fetal bovine serum and RPMI-1640 culture solution (2000 mg D-glucose/L) containing HEPES buffer and penicillin-streptomycin. The renal cell carcinoma xenotransplantation mouse model was prepared by adjusting cultured cells to a 1.0×10^5 cell/mL cell suspension with MEM culture solution, injecting 0.1 mL into the femoral subcutaneous tissue of Female athymic nude mice (BALB/c nu/nu, 6 weeks old), and confirming a tumor volume of 200 mm^3 or greater after 1 week, and it was used for the following experiment.
(§2) A D-allose-containing solution was orally administered from day 1, where “day 0” was defined as the day when the tumor size of the renal cell carcinoma xenotransplantation mouse model prepared using Caki-1 as the human renal cell carcinoma cell line reached 200 mm^3 or greater.
(§3) Either 0.2 mL physiological saline or 0.2 mL physiological saline dissolving 400 mg/kg D-allose was injected into the esophagus of mice divided into 2 groups (control group and D-allose group), through a Neraton catheter. The administration was carried out once a day for a total of 32 consecutive days. The mouse body weights and the long and short diameters of the tumors were measured twice a week. The tumor volumes were calculated as: tumor long diameter×short diameter×short diameter×0.5. The livers and kidneys were extracted with the tumors from the mice on the 32nd day after the start of oral administration and used for the subsequent experiment.
(§4) The tumors, kidneys and livers were extracted from the renal cell carcinoma xenotransplantation mouse models (control group and D-allose-administered group, 32nd day after start of administration), and the tissues were fixed with 4% paraformaldehyde/phosphate buffer, embedded in paraffin and sliced to thicknesses of 4 μm. The thin slices were stained with hematoxylin-eosin staining (HE staining) and observed (FIG. 3, FIG. 5 and FIG. 6).

[2] = Change in tumor D-allose concentration after intraperitoneal or oral administration of D-allose to renal cell carcinoma xenotransplantation mouse model (HPLC); format: in vivo; settings: for D-allose detected in tumor: by 1 hour after oral administration
Method: as §1
In a xenotransplantation mouse model of two different human renal cell carcinoma cell lines (Caki-1, ACHN), tumors were enucleated from the mice at the 1st hour, 2nd hour and 4th hour before and after administration of D-allose by intraperitoneal administration (FIGS. 1(A) and (B)) or oral administration (FIGS. 1(C) and (D)) of a solution of rare sugar D-allose prepared using physiological saline to 400 mg/kg/0.2 mL. The monosaccharides in the supernatant obtained by ultrasonic disruption of the tumors in 1 mL of PBS and centrifugal separation at 3000 rpm for 5 minutes were labeled with ABEE (4-aminobenzoic acid ethyl ester) and the D-allose was quantitatively analyzed by HPLC (high performance liquid chromatography) (FIG. 1).

TXNIP [3] = assay: TXNIP expression (Western blotting) in Caki-2; format: cell-based, human; settings: Caki-2, 10, 25 or 50 mM D-allose, 48 hours
Method: (§5) A human renal cell carcinoma cell line (Caki-1 or Caki-2) was seeded at 5.0×10^5 in a 100 mm dish and cultured for 24 hours, after which it was co-cultured with D-allose (10, 25 or 50 mM). After 48 hours, the cells were recovered and the protein was extracted, and the concentration of each protein was measured using a Bio-Rad Protein Assay Kit (Bio-Rad, Laboratories, Inc. USA). A protein sample ([…]) was electrophoresed on 10% Mini-PROTAN TGX Precast Gel (Bio-Rad) and a Trans-Blot Turbo transfer system (Bio-Rad) was used for transfer onto a PVDF Western Blotting Membrane. After blocking treatment for 1 hour (Superblock T20. Thermo, Rockford. Ill., USA), anti-TXNIP antibody (D5F3E, CST. USA. 1:1000) was used as primary antibody for reaction using an iBind Flex Western System (Thermo). The loading control used was β-actin (ab8227, abcam, CamBridge, UK, 1:1000).

TXNIP [4] = assay: TXNIP expression (Western blotting) in Caki-1; format: cell-based, human; settings: Caki-1, 10, 25 or 50 mM D-allose, 48 hours
Method: as §5

[5] = system: human renal cell carcinoma cell line Caki-1; assay: Intracellular reactive oxygen species (ROS) production, DCF-DA fluorescence, Caki-1; format: cell-based; settings: Caki-1, 50 mM D-allose, co-culture 1 hour, vs DMSO
Method: (§6) After seeding human renal cell carcinoma cell line (Caki-1 or ACHN) at 5.0×10^5 in a 100 mm dish, culturing for 24 hours and then co-culturing with DMSO or D-allose (50 mM) for 1 hour, 10 μM 2,7-Dichlorofluorescin diacetate (DCF-DA; D6883, Sigma-Aldrich, USA) was added and the mixture was allowed to stand at 37° C. for 30 minutes. The cells were recovered with trypsin treatment and collected by centrifugal separation for 5 minutes at 3500×g, after which they were resuspended in ice-cold PBS and a CytoFLEX S (Beckman Coulter, CA, USA) was used to detect the DCF-DA fluorescence. Each experiment was conducted 3 times, and the data were analyzed using CytExpert software and recorded as the average value±SE (FIG. 8).

[6] = Body weight and HE staining of kidney and liver tissue in renal cell carcinoma xenotransplantation mouse model after oral D-allose; format: in vivo
Method: as §2, §3, §4

[7] = system: human renal cell carcinoma cell line ACHN; assay: Intracellular reactive oxygen species (ROS) production, DCF-DA fluorescence, ACHN; format: cell-based; settings: 50 mM D-allose, co-culture 1 hour, vs DMSO
Method: as §6

[8] = system: human colorectal cancer cell line (DLD-1) xenotransplantation mice; assay: Change in tumor volume in colorectal cancer xenotransplantation mouse model by administration of D-allose; format: in vivo; settings: DLD-1 xenograft, Mann-Whitney U test
Method: A cell suspension containing 2.0×10^6 cells of a human colorectal cancer cell line (DLD-1) was injected into femoral subcutaneous tissue of Male athymic nude mice (BALB/c Nude (nu/nu)mice), and adjustment of D-allose or D-glucose was initiated with “day 0” defined as the day when the tumor volume reached about 100 to 150 mm^3.
(§7) D-allose or D-glucose was intraperitoneally administered at 400 mg/kg to colorectal cancer xenotransplantation mice whose tumor volumes had reached about 100 mm^3. Physiological saline was used as the solvent for adjustment to 0.2 ml, and administration was once per day for a total of 30 days. The tumor volumes were measured every 6 days.
as §7, with “orally” for “intraperitoneally”, “100” for “400”, “100 to 150” for “100”, “Distilled water” for “Physiological saline”

O=C[C@H](O)[C@H](O)[C@H](O)[C@H](O)CO [D-allose]
tumor volume at the 32nd day compared to tumor volume before D-allose administration ([1]; oral 400 mg/kg once a day for 32 days): significantly reduced
tumor volume compared to the control group ([1]; oral 400 mg/kg once a day, after the 8th day, Mann-Whitney U test): significantly reduced
nuclear fission in HE stained tumor tissue ([1]; oral 400 mg/kg/day, 32nd day, evaluation by a pathology specialist): reduced nuclear fission
tumor D-allose concentration with oral administration relative to intraperitoneal administration ([2]; 400 mg/kg, Caki-1 and ACHN tumors (not distinguished)): about 80%
D-allose detected in tumor ([2]; ACHN tumors, 400 mg/kg): detected in all of the tumors
D-allose detected in tumor ([2]; Caki-1 tumors, 400 mg/kg): detected in all of the tumors
time of maximum intratumoral D-allose concentration ([2]; Caki-1 tumors, oral administration, 400 mg/kg): 1 h
uptake into renal cell carcinoma compared to non-transintestinal (intraperitoneal) administration ([2]; transintestinal administration, summary statement): equivalent rate or with approximately about 20% reduction
TXNIP expression (TXNIP [3]): increases TXNIP expression in a D-allose dose-dependent manner
TXNIP expression (TXNIP [4]): increases TXNIP expression in a D-allose dose-dependent manner
intracellular ROS [5]: significantly increased
body weight compared to the control group ([6]; oral 400 mg/kg once a day, 32-day observation period): no significant difference
HE staining images of kidney tissue compared to the control group ([6]; oral 400 mg/kg/day, 32nd day): No particular difference
HE staining images of liver tissue compared to the control group ([6]; oral 400 mg/kg/day, 32nd day): No particular difference
intracellular ROS [7]: significantly increased
tumor volume compared to the D-glucose group ([8]; intraperitoneal 400 mg/kg once per day for 30 days, after the 18th day): significantly smaller
tumor volume compared to the D-glucose group ([8]; oral 100 mg/kg once per day for 30 days, 100 mg/kg): no significant difference; also recorded: has not exhibited the anticancer effect
